Measured values taken from DBAASP.
Values after ≈ are worked out from the molar mass of the structure shown. Values joined by “and” are separate entries in the source; they are usually repeats but may differ in a detail not shown here. Identical values can stand only once. Blank lines part the entries; values can stand above or below the compound they belong to.

Legend:
Experiment in all cases: ≥ marks a high value that may be exact or a test limit, other limits are often not marked, values filed in µg/mL are converted to µM
[1] = system: Acinetobacter baumannii 4-MRGN
[2] = system: Pseudomonas aeruginosa ATCC 27853
[3] = system: Enterococcus faecalis VR
[4] = system: Enterococcus faecalis
[5] = system: Escherichia coli ATCC 25922
[6] = system: Escherichia coli ATCC BAA-2523
[7] = system: Pseudomonas aeruginosa
[8] = system: Staphylococcus aureus ATCC 29213
[9] = system: Staphylococcus aureus ATCC 43300
[10] = system: Aspergillus flavus PFCC 100
[11] = system: Aspergillus fumigatus Af293
[12] = system: Aspergillus niger ATCC 9029
[13] = system: Candida albicans ATCC 10231
[14] = system: Candida glabrata ATCC 90030
[15] = system: Candida krusei DSM 70079
[16] = system: Escherichia coli BL21(DE3)
[17] = system: Bacillus subtilis KCTC 3068
[18] = system: Escherichia coli DSM 1103
[19] = system: Escherichia coli KCTC 1682
[20] = system: Pseudomonas aeruginosa CCARM 2092
[21] = system: Pseudomonas aeruginosa CCARM 2095
[22] = system: Pseudomonas aeruginosa CCARM 2109
[23] = system: Pseudomonas aeruginosa DSM 1117
[24] = system: Pseudomonas aeruginosa KCTC 1637
[25] = system: Salmonella typhimurium KCTC 1926
[26] = system: Staphylococcus aureus CCARM 3001
[27] = system: Staphylococcus aureus CCARM 3089
[28] = system: Staphylococcus aureus CCARM 3543
[29] = system: Staphylococcus aureus DSM 1104
[30] = system: Staphylococcus aureus KCTC 1621
[31] = system: Staphylococcus epidermidis DSM 1798
[32] = system: Staphylococcus epidermidis KCTC 1917
[33] = system: Acinetobacter baumannii
[34] = system: Escherichia coli K88
[35] = system: Escherichia coli K99
[36] = system: Escherichia coli UB1005
[37] = system: Escherichia coli
[38] = system: Klebsiella pneumoniae
[39] = system: Pseudomonas aeruginosa CICC 21625
[40] = system: Pseudomonas aeruginosa CICC 21630
[41] = system: Pseudomonas aeruginosa PAO1
[42] = system: Salmonella enterica subsp. enterica serovar Pullorum C79-13
[43] = system: Salmonella enterica subsp. enterica serovar Typhimurium ATCC 14028
[44] = system: Salmonella enterica subsp. enterica serovar Typhimurium C77-31

SMILES: C[C@H](N)C(=O)N[C@H](C(=O)N[C@@H](CS)C(=O)N[C@@H](Cc1ccc(O)cc1)C(=O)N[C@H]1CSSC[C@@H](C(=O)N[C@@H](C)C(=O)N[C@H](C(=O)N[C@@H](CCCN=C(N)N)C(=O)O)[C@@H](C)O)NC(=O)[C@H](CCCN=C(N)N)NC(=O)CNC(=O)[C@H]([C@@H](C)O)NC(=O)[C@H](CCCN=C(N)N)NC1=O)[C@@H](C)O [ATCYCRTGRCATR]
MIC [1]: ≥ 99.9 µM
MIC [2]: > 99.9 µM

SMILES: CC(C)C[C@H](NC(=O)[C@@H](N)CCC(N)=O)C(=O)NCC(=O)N[C@@H](CCCN=C(N)N)C(=O)N[C@@H](CCCN=C(N)N)C(=O)N[C@@H](CCCN=C(N)N)C(=O)N[C@@H](Cc1cnc[nH]1)C(=O)N[C@@H](CCCN=C(N)N)C(=O)N[C@@H](CCCN=C(N)N)C(=O)N[C@@H](CCCN=C(N)N)C(=O)N1CCC[C@H]1C(=O)N[C@@H](CO)C(=O)N[C@@H](CCCN=C(N)N)C(=O)N[C@@H](CCCN=C(N)N)C(=O)N[C@@H](CCCN=C(N)N)C(=O)N[C@@H](CCCN=C(N)N)C(=O)N[C@@H](Cc1cnc[nH]1)C(=O)N[C@@H](Cc1c[nH]c2ccccc12)C(=O)O [QLGRRRHRRRPSRRRRHW]
MIC [3]: 16 µM (≈ 40.4 µg/mL)
MIC [4]: ≥ 32 µM
MIC [5]: 64 µM (≈ 161 µg/mL)
MIC [6]: ≥ 128 µM
MIC [2]: > 128 µM
MIC [7]: 128 µM (≈ 323 µg/mL)
MIC [8]: 32 µM (≈ 80.7 µg/mL)
MIC [9]: 16 µM (≈ 40.4 µg/mL)

SMILES: CC[C@H](C)[C@H](NC(=O)CNC(=O)[C@@H](NC(=O)[C@H](Cc1ccccc1)NC(=O)[C@H](C)NC(=O)[C@H](CCCCN)NC(=O)[C@@H](NC(=O)[C@H](CO)NC(=O)[C@@H](N)CC(C)C)C(C)C)[C@@H](C)O)C(=O)N[C@@H](CCC(N)=O)C(=O)N[C@@H](CC(C)C)C(=O)N[C@@H](CCCN=C(N)N)C(=O)NCC(=O)N[C@H](C(=O)N[C@@H](CS)C(=O)NCC(=O)N[C@H](C(=O)N[C@@H](CCC(=O)O)C(=O)N[C@H](C(=O)N[C@@H](CCCCN)C(=O)N[C@@H](C)C(=O)N[C@@H](CCCN=C(N)N)C(=O)NCC(=O)O)C(C)C)[C@@H](C)CC)C(C)C [LSVKAFTGIQLRGVCGIEVKARG]
MIC [10]: 13.3 µM (≈ 32 µg/mL)
MIC [11]: 6.66 µM (≈ 16 µg/mL)
MIC [12]: 6.66 µM (≈ 16 µg/mL)
MIC [13]: 6.66 µM (≈ 16 µg/mL)
MIC [14]: 3.33 µM (≈ 8 µg/mL)
MIC [15]: 6.66 µM (≈ 16 µg/mL)

SMILES: CC(C)[C@H](NC(=O)[C@H](CCCCN)NC(=O)[C@H](CCCN=C(N)N)NC(=O)[C@H](CCCCN)NC(=O)[C@H](CCCCN)NC(=O)[C@H](CCCCN)NC(=O)[C@@H]1CCCN1C(=O)[C@H](CCC(N)=O)NC(=O)[C@H](CO)NC(=O)[C@H](Cc1c[nH]c2ccccc12)NC(=O)[C@H](CCC(=O)O)NC(=O)[C@@H](NC(=O)[C@H](Cc1c[nH]c2ccccc12)NC(=O)[C@H](Cc1c[nH]c2ccccc12)NC(=O)[C@@H](NC(=O)[C@H](CCC(=O)O)NC(=O)[C@H](Cc1c[nH]c2ccccc12)NC(=O)[C@H](Cc1c[nH]c2ccccc12)NC(=O)[C@@H](NC(=O)[C@H](CCC(=O)O)NC(=O)[C@@H](N)CCCCN)[C@@H](C)O)[C@@H](C)O)[C@@H](C)O)C(=O)O [KETWWETWWTEWSQPKKKRKV]
MIC [17]: 8 µM (≈ 22.8 µg/mL)
MIC [18]: ≥ 87 µM
MIC [19]: ≥ 32 µM
MIC [20]: ≥ 32 µM
MIC [21]: ≥ 64 µM
MIC [22]: ≥ 32 µM
MIC [23]: ≥ 87 µM
MIC [24]: ≥ 64 µM
MIC [25]: ≥ 64 µM
MIC [26]: ≥ 64 µM
MIC [27]: ≥ 64 µM
MIC [28]: ≥ 64 µM
MIC [29]: ≥ 87 µM
MIC [30]: ≥ 64 µM
MIC [31]: ≥ 87 µM
MIC [32]: ≥ 64 µM

The remaining lines, values ahead:

MIC [16]: 4 µM and 8 µM
SMILES: CC[C@H](C)[C@H](NC(=O)[C@H](CC(C)C)NC(=O)[C@H](CCCN=C(N)N)NC(=O)[C@@H](NC(=O)[C@H](CC(C)C)NC(=O)[C@H](CCCN=C(N)N)NC(=O)[C@@H](N)CCCN=C(N)N)[C@@H](C)CC)C(=O)N[C@@H](CC(C)C)C(=O)N[C@@H](CCCN=C(N)N)C(=O)N[C@@H](CC(C)C)C(=O)N[C@@H](CC(C)C)C(=O)N[C@@H](CCCN=C(N)N)C(N)=O [RRLIRLILRLLR]

MIC [33]: ≥ 64 µM
MIC [5]: > 64 µM
MIC [34]: ≥ 64 µM
MIC [35]: ≥ 64 µM
MIC [36]: ≥ 64 µM
MIC [37]: > 64 µM
MIC [38]: > 64 µM
MIC [2]: > 64 µM
MIC [39]: ≥ 64 µM
MIC [40]: ≥ 64 µM
MIC [41]: > 64 µM
MIC [7]: > 64 µM
MIC [42]: ≥ 64 µM
MIC [43]: > 64 µM
MIC [44]: ≥ 64 µM
SMILES: CC(C)[C@H](N)C(=O)N[C@@H](CCCCN)C(=O)N1CCC[C@H]1C(=O)N[C@H](C(=O)N[C@H](C(=O)N[C@@H](CCCCN)C(=O)N1CCC[C@H]1C(=O)N[C@H](C(=O)N[C@H](C(=O)N[C@@H](CCCCN)C(=O)N1CCC[C@H]1C(=O)N[C@H](C(=O)N[C@H](C(=O)N[C@@H](CCCCN)C(=O)N1CCC[C@H]1C(=O)N[C@H](C(=O)N[C@H](C(=O)N[C@@H](CCCCN)C(=O)N1CCC[C@H]1C(=O)N[C@H](C(=O)N[C@H](C(=O)N[C@@H](CCCCN)C(=O)N1CCC[C@H]1C(=O)N[C@H](C(N)=O)C(C)C)C(C)C)C(C)C)C(C)C)C(C)C)C(C)C)C(C)C)C(C)C)C(C)C)C(C)C)C(C)C [VKPVVKPVVKPVVKPVVKPVVKPV]
